# In paper PMC11083148, “Structure–Activity Relationship Studies on Highly Functionalized Pyrazole Hydrazones and Amides as Antiproliferative and Antioxidant Agents” (International Journal of Molecular Sciences, 2024):
# Several values for one entry are separate records, joined by “and”; a condition that tells them apart may be missing. Equal values may be shown once.
# Tests used:
# GM-6114 = assay: MTT assay, cytotoxicity on normal fibroblasts; assay type: cell-based; conditions: human, 48 h, 10 µM
# HeLa = assay: MTT assay, antiproliferative activity; assay type: cell-based; conditions: Homo sapiens, 10 µM, 48h, read-out: Mean Growth Percentage
# Procedure: (§1) Pyrazole acylhydrazones 10–13 and amides 14–22 were tested by MTT assay to evaluate their antiproliferative and cytotoxicity properties against a panel of eight tumor cell lines and normal fibroblasts.
# (§2) All reagents were purchased from EuroClone, Milan, Italy). The following cell lines were used for MTT assays: SKOV-3 (ovarian adenocarcinoma, ATCC, Manassas, VA, USA); MCF-7 (breast adenocarcinoma, Biologic Bank and Cell Factory, IRCCS Policlinico San Martino, Genoa, Italy); Hep-G2 (hepatocellular carcinoma, ATCC, Manassas, VA, USA); SK-MEL28 (skin melanoma, Biologic Bank and Cell Factory, IRCCS Policlinico San Martino, Genoa, Italy), GM-6114 (embryonic human fibroblast, ATCC, Manassas, VA, USA); MDA-MB231 (breast adenocarcinoma, Biologic Bank and Cell Factory, IRCCS Policlinico San Martino, Genoa, Italy); HeLa (cervical adenocarcinoma, Biologic Bank and Cell Factory, IRCCS Policlinico San Martino, Genoa, Italy); SK-BR3 (breast andenocarcinoma, Biologic Bank and Cell Factory, IRCCS Policlinico San Martino, Genoa, Italy); A549 (lung carcinoma, Biologic Bank and Cell Factory, IRCCS Policlinico San Martino, Genoa, Italy); HUVEC (Human Umbilical Vein Endothelial Cells, ATCC, Manassas, VA, USA). All cell lines were grown in their medium with 10% FBS, 2 mM Glutamine, and 1% penstrep and incubated at 37 °C in 5% CO2 in a humidified environment. The cell lines were plated in 96-well plates at an adequate number to reach 80–90% confluence at the end of the assay. 16 h after cell plating, a 10 mM DMSO stock solution of the compounds was diluted in growth medium and added at a final working concentration of 10 μM. After 48h of incubation, a 2 mg/mL PBS solution of MTT (3-(4,5-dimethyl-2-thiazolyl)-2,5-diphenyl-2H-tetrazolium bromide) was added (30 μL/well). After 4h, the supernatant was removed, and the Formazan precipitates were dissolved in DMSO (100 μL/well). The 96-well plates were incubated for 20 min, and absorbance was measured at 570 nm using a plate reader. The results are expressed as a percentage ratio over control samples (100%) in which the cells were incubated with the same amount of DMSO but without compounds. Each value is the mean of three independent experiments run in six replicates.
# (§3) Each IC50 value is the mean of three independent experiments run in duplicate.
# SKOV3 = assay: MTT assay, antiproliferative activity; assay type: cell-based; conditions: Homo sapiens, SK-OV-3, 10 µM, 48h
# Procedure: as §1, §2, §3
# SKMEL28 = assay: MTT assay, antiproliferative activity; assay type: cell-based; conditions: Homo sapiens, SK-MEL-28, 10 µM, 48h
# Procedure: as §1, §2, §3
# MCF7 = assay: MTT assay, antiproliferative activity; assay type: cell-based; conditions: Homo sapiens, 10 µM, 48h
# Procedure: as §1, §2, §3
# washed platelets [1] = assay: Platelet aggregation (thrombin-induced, Born's method); assay type: cell-based; conditions: Homo sapiens, 0.1 U/mL thrombin, mean ± SD, read-out: IC50 Aggregation inhibition
# Procedure: (§4) The antioxidant properties of acylhydrazones 10–13 and pyrazolyl amides 14–22 were tested by evaluating their inhibition of platelet aggregation and ROS production (Figure 3, Table S1). In fact, human platelets could represent a fast and low-cost biological model to screen compounds as anticancer, anti-inflammatory, and antiaggregating agents. Moreover, ROS production inhibition, related to human platelet aggregation, could provide a good indication of the anti-inflammatory and antioxidant properties of the newly synthesized compounds [47, 50, 51, 52]. N-acetylcysteine (NAC) and acetyl salicylic acid (ASA) were used as reference drugs for antioxidant and antiaggregant activities, respectively.
# (§5) Freshly drawn venous blood from healthy volunteers from “Centro Trasfusionale” (IRCCS Policlinico San Martino, Genoa, Italy) was collected into a 130 mM aqueous trisodium citrate anticoagulant solution (9:1). The donors claimed to not have taken drugs known to interfere with platelet function during the two weeks prior to blood collection and gave their informed consent. Whole blood was centrifuged at 100× g for 20 min to afford platelet-rich plasma that was then spun at 1100× g for 15 min. The obtained pellet was washed once with a pH 5.2 ACD solution (75 mM trisodium citrate, 42 mM citric acid, and 136 mM glucose), centrifuged at 1100× g for 15 min, and then re-suspended in pH 7.4 Hepes buffer (145 mM NaCl, 5 mM KCl, 1 mM MgSO4, 10 mM glucose, and 10 mM HEPES).
# Thrombin was purchased from Sigma-Aldrich/Merck Millipore. A DMSO solution of compounds 10–22 was diluted in saline immediately before each experiment and added to the washed platelets (3.0 × 10^8/mL) at 37 °C. After 3 min, 0.1 U/mL thrombin was added, and platelet aggregation was quantified according to Born’s method using a Bio-Data Aggregometer (Bio-Data Corporation, Horsham, PA, USA). The IC50 values were calculated as detailed above.
# [2] = DPPH radical-scavenging activity; assay type: physicochemical; design: AA (%), percentage of antioxidant activity: concentration or dose not given beside the values; conditions: mean ± SD, n = 2
# Procedure: The antioxidant activity of the representative compounds of the two series (namely, acylhydrazones 10b, 11a, 11d, 12d, 13d, and amides 14, 22) was measured in vitro using the 2,2-diphenyl-1-picrylhydrazyl (DPPH) assay. The results were calculated as Trolox equivalent and expressed as a percentage of antioxidant activity (AA) (Table 3). […] Derivatives 10b and 12d were endowed with the highest antioxidant activity, thus highlighting the relevance of both pyrazole N1 and acylhydrazone substituents on compounds’ radical scavenging properties.
# Compounds 10b, 11a, 11d, 12d, 13d, 14, and 22 (ca. 3 mg) were dissolved in DMSO (1 mL), and then 100 µL of this solution was mixed with 3.9 mL of DPPH methanol solution (65 µM). Absorbance was measured at 517 nm after reacting for 30 min in the dark. The linear calibration curve was obtained using Trolox standards (ranging between 20 and 200 mg/L, R^2 = 0.9955). The result was calculated as Trolox equivalent in mg/L, and the percentage of antioxidant activity (AA%) was calculated from the ratio of decreasing absorbance of sample solution (A0 − As) to absorbance of blank DPPH solution (A0), as expressed in Equation (1). (1) AA%=A0−As/A0×100
# All analyses were carried out in duplicate (n = 2), and values are given as means ± standard deviation (SD).
# washed platelets [3] = assay: ROS assay in platelets (DCFH-DA, thrombin-stimulated); assay type: cell-based, human; conditions: Homo sapiens, Platelet, 0.1 U/mL thrombin, mean ± SD, read-out: IC50 ROS production inhibition
# Procedure: as §4, §5
# 2′,7′-Dichlorofluorescein diacetate (DCFH-DA) and thrombin were purchased from Sigma-Aldrich/Merck Millipore. DMSO solutions of 10–22 were diluted in saline immediately before each experiment. ROS production was quantified by DCFH-DA, a ROS-sensitive probe that yields, upon oxidation, the fluorescent adduct DCF that is trapped inside the cells. Briefly, washed platelets (1.0 × 10^8/mL), pre-incubated with saline solutions of 10–22 for 15 min at 37 °C, were stimulated by 0.1 U/mL thrombin. Incubation was stopped by cooling samples in an ice bath, and then samples were immediately analyzed in a Merck Millipore Bioscience Guava easyCyte flow cytometer (Merk Millipore, Burlington, MA, USA). The reported IC50 values represent the molar concentration of the compounds able to inhibit 50% of the maximal aggregation induced by the agonist and are calculated as the percentage inhibition of the maximal aggregation measured in the presence of the agent compared with the measure in a control sample containing saline, carried out under the same conditions. The IC50 values were extrapolated from nonlinear regression analysis of concentration–response curves (three points) using MS Excel software (Microsoft 365 suite). Each IC50 value is the mean of six independent experiments.
# Hep-G2 = assay: MTT assay, antiproliferative activity; assay type: cell-based; conditions: Homo sapiens, HepG2, 48h
# Procedure: as §1, §2
# SK-BR3 = assay: MTT assay, antiproliferative activity; assay type: cell-based; conditions: Homo sapiens, SK-BR-3, 48h
# Procedure: as §1, §2
# MDA-MB231 = assay: MTT assay, antiproliferative activity; assay type: cell-based; conditions: Homo sapiens, MDA-MB-231, 48h
# Procedure: as §1, §2
# A549 = assay: MTT assay, antiproliferative activity; assay type: cell-based; conditions: Homo sapiens, 48h, read-out: Mean Growth Percentage
# Procedure: as §1, §2
# [4] = design: method as in PMID 32932211; conditions: ABTS scavenging assay; cited from earlier work
SMILES,Mean Growth Percentage (GM-6114),melting point,activity at 10 µM (HeLa),Mean growth percentage at 10 µM (SKOV3),Mean growth percentage at 10 µM (SKMEL28),mean growth percentage (cell growth remaining vs control) at 10 µM (MCF7),IC50 (washed platelets [1]),"AA (%), percentage of antioxidant activity [2]",DPPH (%) [2],IC50 (washed platelets [3]),Mean growth percentage at 10 µM (Hep-G2),Mean growth percentage at 10 µM (SK-BR3),Mean growth percentage at 10 µM (MDA-MB231),activity at 10 µM (A549),IC50 [4],Trolox equivalent antioxidant capacity (TEAC) [4]
"CCOC(=O)c1c(NC(=O)c2cc(OC)c(OC)c(OC)c2)nn(C)c1Nc1ccccc1 [compound 22, Ethyl 1-methyl-5-(phenylamino)-3-(3,4,5-trimethoxybenzamido)-1H-pyrazole-4-carboxylate]",57.94%,135 to 138 °C,109%,94.2%,84.1%,115%,249 ± 22 µM,2.39 ± 0.24%,97.61 ± 0.24%,313 ± 25 µM,102%,103%,140%,106%,–,–
"COC(=O)c1c(NC(=O)c2cc(OC)c(OC)c(OC)c2)n[nH]c1Nc1ccccc1 [compound 14, Methyl 5-(phenylamino)-3-(3,4,5-trimethoxybenzamido)-1H-pyrazole-4-carboxylate]",39.31%,164 to 166 °C,9.45%,38.5%,41.5%,66.1%,365 ± 28 µM,3.62 ± 0.08%,96.38 ± 0.08%,387 ± 35 µM,67.2%,53.8%,57%,35.1%,–,–
"COc1ccc(/C=N/NC(=O)c2c(Nc3ccccc3)nn(C)c2N)cc1OCc1ccccc1 [12d, (E)-5-amino-N′-(3-(benzyloxy)-4-methoxybenzylidene)-1-methyl-3-(phenylamino)-1H-pyrazole-4-carbohydrazide]",102.79%,–,85.7%,106%,80.8%,85.2%,433 ± 16 µM,69.10 ± 0.39%,30.90 ± 0.39%,171 ± 9 µM,105%,90.6%,94.1%,102%,–,–
Nc1c(C(F)(F)F)n[nH]c1-c1ccccc1 [IIa],–,–,–,–,–,–,–,–,–,–,–,–,–,–,14.1 µM,1.35
"COc1ccc(/C=N/NC(=O)c2c(N)n[nH]c2Nc2ccccc2)cc1OC [10b, (E)-3-amino-N′-(3,4-dimethoxybenzylidene)-5-(phenylamino)-1H-pyrazole-4-carbohydrazide]",107.36%,–,105%,114%,94.5%,95.3%,94 ± 7 µM,76.45% and 76.45 ± 0.39%,23.55 ± 0.39%,104 ± 4 µM,115%,91.6%,100%,91.1%,–,–
"COc1ccc(/C=N/NC(=O)c2c(N)nn(C)c2Nc2ccccc2)cc1OCc1ccccc1 [11d, (E)-3-amino-N′-(3-(benzyloxy)-4-methoxybenzylidene)-1-methyl-5-(phenylamino)-1H-pyrazole-4-carbohydrazide]",99.22%,183 to 186 °C,95.2%,103%,89%,82.9%,890 ± 19 µM,15.53 ± 0.24%,84.47 ± 0.24%,182 ± 11 µM,111%,90.2%,98.6%,101%,–,–
"COc1ccc(/C=N/NC(=O)c2c(Nc3ccccc3)nn(CC(O)c3ccccc3)c2N)cc1OCc1ccccc1 (stereo not drawn) [13d, (E)-5-amino-N′-(3-(benzyloxy)-4-methoxybenzylidene)-1-(2-hydroxy-2-phenylethyl)-3-(phenylamino)-1H-pyrazole-4-carbohydrazide]",95.39%,170 to 173 °C,96.7%,112%,93.9%,108%,437 ± 25 µM,56.29 ± 1.18%,43.71 ± 1.18%,405 ± 29 µM,120%,97.9%,93.8%,90.4%,–,–
